For experiment [1], the system named is HCT-15. To be noted: HCT-15, previous studies (Lim et al. 2007); read-out: IC50 dose of 5-FU; cited from earlier work.
Experiment [2] deals with IRE-1, ATF6, CHOP mRNA. Briefly: qRT-PCR of ER stress associated genes in HT-29 and HCT-15 cells. The format is cell-based, human. To be noted: 5-FU at IC50 dose; for CHOP mRNA expression: AGP 9.3 μM, MLT 0.18 mM alone or combined, 48 h, both cell lines. As for the experimental part:
(§1) FIG. 5. AGP and MLT synergistically induce ER stress-related molecules. HT-29 and HCT-15 cells were treated with AGP, MLT, AGP+MLT, and 5-FU for 48 h as indicated in the methodology section. Transcriptional level of expression of ER stress associated genes was determined by qRT-PCR for A. IRE-1, B. ATF6, and C. CHOP. Bar graphs show quantitative results normalized to GAPDH mRNA levels. Results are from three independent experiments. D. Treated and untreated cells were lysed, and protein expression was determined by immunoblotting for IRE-1, ATF6, phospho-PERK, and GAPDH.
(§2) Gene expression was evaluated as previously described (Banerjee et al., Oncotarget, (2016), 7(27):41432-41444). Primer sequences are listed in Supplementary Table 1. Relative gene expression changes were calculated using the 2^−ΔΔCT method, and expression normalization was accomplished using the housekeeping gene, GAPDH.
In general terms: Quantitative PCR measures a nucleic acid by following its amplification.

The subject of experiment [3] is IRE-1, ATF6, phospho-PERK protein. Briefly: Immunoblotting of ER stress markers in HT-29 and HCT-15 cell lysates. The format is cell-based, human. To be noted: 5-FU treatment group; except IRE-1 protein level in HT-29. On the procedure: as §1
(§3) Immunoblotting was performed as previously described (Banerjee, Basu, et al. 2016). The primary antibodies used were against ATF6 (#MA5-16172; Thermo Fisher Scientific) phospho-PERK (Thr 981) (#sc-32577; Santa Cruz biotechnology), IRE-1 (#3294S; Cell Signaling), phospho-VEGFReceptor1/Flt-1 (Y1213) (#AF4170; R&D systems,), total VEGFReceptor1 (R&D systems, #AF321), FoxM1 (R&D systems, #AF3975), and GAPDH (#G8795; Sigma Aldrich). Blots were incubated with HRP-conjugated secondary antibodies followed by enhanced chemiluminescence (ECL) detection. Images were captured using a Syngene G Box digital imager (Frederick, Md.) and results were quantified with densitometry as previously described (Blanchard et al. 2018).
For orientation: A western blot detects proteins with antibodies after separation by electrophoresis.

The test system of experiment [4] is HT-29. To be noted: HT-29, previous studies (Lim et al. 2007); read-out: IC50 dose of 5-FU; cited from earlier work.
For experiment [5], the system named is VEGF165, VEGF189, VEGF receptor1, VEGF Receptor2, FoxM1, PTTG1 mRNA. Briefly: qRT-PCR of angiogenic signaling molecules in HT-29 and HCT-15 cells. The format is cell-based, human. On the procedure:
(§4) FIG. 6. AGP and MLT synergistically downregulates angiogenic signaling molecules in colon cancer cells. HT-29 (left) and HCT-15 (right) cells were analyzed for A. VEGF165, B. VEGF189, C. VEGF receptor1, D. FoxM1, E. PTTG1 mRNA expression in the presence and absence of AGP, MLT and 5-FU. F. HT-29 and HCT-15 cell lysates were subjected for protein expression as indicated. (G-H). Quantification of FoxM1 was normalized with GAPDH and (I-J). p-VEGF receptor1 was normalized with total VEGF receptor 1. Statistical significance was determined using one-way ANOVA followed Bonferroni test (*P<0.05, **P<0.01, ***P<0.001).
as §2

Experiment [6] deals with FoxM1 and phospho-VEGF receptor1 protein. Briefly: Immunoblotting of angiogenic markers in HT-29 and HCT-15 cell lysates. The format is cell-based, human. To be noted: vs untreated and single compound groups. As for the experimental part:
as §4, §3

The conditions of experiment [7]: cited from earlier work.
For experiment [8], the target named is Ki-67 in patient derived organoids (PDOD). Nature of the experiment: Ki-67 immunofluorescence in patient derived organoids. The format is cell-based, human. To be noted: AGP 15 μM, MLT 0.5 mM or both, 48 h; vs untreated. On the procedure: Organoid cells were generated from stage 3 metastatic cancer tissue and cultured as previously described (Blanchard et al., Cell Physiol Biochem, (2018), 48(3):1259-1273; Banerjee et al., Gastroenterology and Hepatology International Journal, (2017), 2(2):1-2; Blanchard et al., Cancers (Basel), (2019), 11(2)). The cultures were passaged when the aggregates reached a diameter of approximately 800 μm. Organoids were treated with 15 μM AGP, 0.5 mM MLT, or both for 48 h. Treated and untreated organoids were subjected to morphological analysis and immunofluorescence for Ki67 expression.
Patient derived organoids were grown in 1:1 mixture of Matrigel and advanced DMEM:F12 (Life Technologies) supplemented with 1× penicillin/streptomycin, lx glutamine, 1×N2, 1×B27, 1 mM N-acetyl-L-cysteine, 20 ng/ml fibroblast growth factor and 50 ng/ml epidermal growth factor at 37° C. on a 4-chambered glass slide. […]
Fluorescence microscopy and colony counting were performed using an inverted fluorescence microscope (Olympus IX-71, Pennsylvania, USA). […] Fluorescence intensity was quantified using ImageJ software version 1.39 (NIH). RGB composite images from control and treated groups were created using Axion Vision rel, 4.6 and analyzed. […]

Experiment [9] deals with Cyclin B1, Prx, Trx. To be noted: T84 and Colo 205 cell lysates, earlier publication; cited from earlier work.
Experiment [10] has as its system HCT-15 cells. Briefly: MTT cell viability assay with CompuSyn / Chou-Talalay combination index analysis. The format is cell-based, human. To be noted: for IC50: Homo sapiens, HCT-15, 48 h, median-effect plot, combination = total dose at 1:20, read-out: Dm values for HCT-15. As for the experimental part: (§5) Cell cytotoxicity in the presence or absence of AGP and MLT was assessed using the MTT (Sigma Aldrich) assay as previously described (Banerjee et al., Helicobacter, (2016), 21(5):395-404). Cells (1×10^4) were plated in phenol-free complete RPMI media and incubated at 37° C. under 5% CO2 for 24 h. Cells were then simultaneously treated in quadruplicate wells with AGP (0-150 μM), MLT (0-3000 μM) or vehicle controls (0.1% DMSO). The media was replaced with MTT solution for each plate at its respective timepoint (either 24, 48, 72 h) followed by the addition of DMSO to dissolve the formazan crystals. Absorbance at 570 nm was determined using a microplate reader (Model 550, Bio-Rad, USA). The percent cell viability relative to the vehicle control was calculated using the following equation:
(§6) [formula] The IC50 value and slope (m) of the concentration-response curves were calculated using the CompuSyn software developed by Chou and Martin (Tun et al., Mar Drugs, (2019), 17(9): 10.3390/md17090536). Colospheroid Formation Assay
(§7) To determine an upper bound on both the individual doses drugs, we measured maximum cell death (near 0% cell viability). AGP achieved this level at 150 μM and MLT at 3 mM for 48 h (Banerjee et al., Helicobacter, (2016), 21(5):395-404, Reiter et al., Int J Mol Sci, (2017), 18(4), doi: 10.3390/ijms18040843). […] Serial dilution was conducted up to 6 times to anchor the observed cell deaths along the dose range.
(§8) To understand the Combination Index (CI), we first defined the fraction affected (Fa) and its counterpart, fraction unaffected (Fu). In our case, the percentage of viable cells determines the […], and 100—percentage of viable cells determines the Fu. The dose effect curve provides an overview of Fa vs. Dose (FIG. 2A and FIG. 2B). As expected, the individual AGP and MLT dose effect curves cradle the combinational dose effect curve below and above, respectively. This means that the total combinational dose to achieve the same Fa is greater than AGP's dose and less than MLT's dose. However, due to the 1:20 combinational ratio, we require less AGP and MLT absolutely.
(§9) [formula] The ratio between Fa and Fu aids in understanding when a given dose achieves the IC50 value. At 50% cell viability,
(§10) [formula] To linearly scale the datapoints, we also took the log of Dose. In this manner, the x intercept of the Median-Effect plot—also known as Dm—precisely determines the dose required to achieve the IC50 value. Immunoblotting
On the technique in general: Formazan colour is commonly taken as a measure of viable cells.

In experiment [11] the test system is HT-29 cells. The experiment is described as above. The format is cell-based, human. To be noted: for IC50: Homo sapiens, HT-29, 48 h, median-effect plot, combination = total dose at 1:20, read-out: Dm values for HT-29. On the procedure:
as §5, §6, §7, §8, §9, §10

Experiment [12] has as its system HT-29 and HCT-15 cells. Briefly: MTT cell viability assay, one value given for both cell lines. The format is cell-based, human. To be noted: for IC50: Homo sapiens. On the procedure: as §5, §6, §7, §8, §9, §10
Experiment [13] has as its system T84 and Colo 205. To be noted: cited from earlier work.
Experiment [14] relates to CRC. To be noted: previous studies; read-out: IC50 value of MLT for CRC; cited from earlier work.

Like-named read-outs stand apart in the source and are kept apart here.

With `O=c1[nH]cc(F)c(=O)[nH]1` [5-FU, 5-Fluorouracil], in [1], the IC50 is ~5 µM. In addition, in [2] (HCT-15), the “ATF6 mRNA expression” value is “induced significant”. Besides, the “IRE-1 mRNA expression” value in experiment [2] (HT-29 and HCT-15) is recorded as “induced significant”. Besides, the “CHOP mRNA expression” value in [2] was “attenuated”. Besides, the “ER stress marker protein expression” value in experiment [3] is reported as “No significant changes”. Besides, the IC50 in [4] was 13 µM. In addition, in [5], the “FoxM1 mRNA level” value is listed as “no more significant reduction” and the “PTTG1 mRNA level” value was “no more significant reduction”. Moreover, in experiment [5] (both cell lines, vs untreated), the mVEGF165 level result is reported as “increased” and the mVEGF189 level entry is “increased”. In addition, in experiment [6], the FoxM1 protein result was “No further reduction” and the “phospho-VEGF receptor1 protein” value is “No further reduction”. The “overall response rate to 5-FU in adjuvant treatment” value in [7] (adjuvant treatment) was “less than 15%”. Besides, in experiment [7] (advanced CRC), the “overall response of 5-FU in advanced CRC” value is recorded as “about 10%”.
Take `C=C1CC[C@@H]2[C@](C)(CO)[C@H](O)CC[C@@]2(C)[C@@H]1C/C=C1/C(=O)OC[C@H]1O` [AGP, andrographolide]: in experiment [8], the Ki-67 expression entry was “greatly reduced”. For the same molecule, in experiment [2], the “CHOP mRNA expression” value is “Significant CHOP mRNA expression”. Besides, the “Cyclin B1 expression, AGP alone” value in experiment [9] is “suppresses”. In addition, the “potency of AGP relative to MLT” value in [10] (HCT-15, dose-effect curve) amounted to 26 fold; in [11] (HT-29, dose-effect curve) it was 40 fold. Further, the IC50 in experiment [10] was 26.5 µM; in experiment [11], 25.6 µM; in [12] (24 h (stated consistent with 48 h), read-out: IC50 value of AGP) it was 30 µM; in experiment [12] (AGP single dose, 48 h, read-out: IC50 values) it was 30 µM; in [13] (48 h, published results, read-out: IC50 value for AGP as a single therapy) it was 45 µM; in [13] (T84 and Colo 205, previous study, read-out: IC50 value of AGP), 45 µM. Besides, the “dose achieving maximum cell death (near 0% cell viability)” value in experiment [12] (48 h) came out at 150 µM. The “potency of AGP relative to MLT (basis of 1:20 ratio)” value in [12] (from maximum cell death doses) came out at 20 times.
For `COc1ccc2[nH]cc(CCNC(C)=O)c2c1` [MLT, melatonin], the Ki-67 expression result in experiment [8] was “greatly reduced”. Also, the IC50 in experiment [10] was 683 µM; in [11], 1000 µM; in [12] (MLT single dose, 48 h, read-out: IC50 values), 1000 µM; in experiment [14] it was 1000 to 2500 µM. Besides, in [12] (24 h), the “cell number at 24 h” value is reported as “transient increase in the cell number”. Moreover, in [12] (48 h), the “dose achieving maximum cell death (near 0% cell viability)” value was 3000 µM.

These data come from patent US12589088B2, “Compositions and methods for treating cancer with andrographolide and melatonin combination therapy” (University of Maryland, Baltimore, priority 2020, dated 2026).
